Test results as given in patent publication US8202863B2 (Aventis Pharmaceuticals Inc., priority 2005, dated 2012).

These compounds were tested against human h-PGDS (Homo sapiens, UniProt O60760) (assay: Enzyme Immunoassay (EIA) method (Assay 2)). Conditions: assigned.
Assay type: biochemical
Source text: The compounds of the present invention can be tested for enzymatic inhibiting activity against PGD2 Synthase according to either one of the following assays.
Assay 2: Enzyme Immunoassay (EIA) Method
• a. Preparation of 0.1M K2HPO4/KH2PO4 buffer (pH ˜7.4) • Prepare 0.1 M KH2PO4 from 1M KH2PO4 (Sigma, Cat# P-8709) • Prepare 0.1 M K2HPO4 from powder of K2HPO4 (Fisher, BP363-500) • Mix 0.1 M K2HPO4 with 0.1 M KH2PO4 to adjust pH to 7.4. • b. Preparation of 0.5% γ-globulin • Add 0.1 g of γ-globulin (Sigma, Cat# G-5009) to 20 mL 0.1 M K2HPO4/KH2PO4 buffer (pH ˜7.4) and make 1-ml/vial aliquots and store in −80° C. • c. Preparation of 100 mM GSH • Add 307 mg of GSH (Sigma, Cat# G-6529) to 10 mL 0.1 M K2HPO4/KH2PO4 buffer (pH ˜7.4) and store at −80° C. • d. Preparation of Reaction buffer: • 198 mL of 0.1M K2HPO4/KH2PO4 buffer (pH ˜7.4) • 2 mM GSH—Prepared from 100 mM GSH • 0.4 g Glycerol • 2 mL of 0.5% γ-globulin • Add 0.4 g of glycerol and 2 mL of 0.5% γ-globulin to 198 mL of 0.1 M K2HPO4/KH2PO4 • buffer (pH7.4). • Add 0.4 mL of 100 mM GSH to 19.6 ml reaction buffer before the assay (enough for two 96-well plates). • e. Preparation of FeCl2/citric acid stopping solution: (8 mg/mL FeCl2, 0.1 M citric acid) • Add 40 mg fresh FeCl2 (IGN, Cat# 158046) to 5 ml 0.1 M citric acid (Sigma, Cat# C0759). • f. Preparation of MOX reagent: • 10% EtOH-Add 1 mL of EtOH to 9 mL of ultra pure H2O • Dissolve 0.1 g of methoxylamine (Cayman, Cat# 400036/) in 10% EtOH (10 mL). • Add 0.82 g of sodium acetate (Cayman, Cat#400037) to MOX solution and dissolve. II. Materials and Method • Dimethylsulfoxide (DMSO; Sigma; Cat# D2650) • Prostaglandin D2-MOX express EIA kit (Caymen Chemical, Catalog No. 500151)
Before the assay, cool down 10 mL of acetone in polypropylene tubes and empty 96 well plates in ice. All the procedures except compound dilution are performed on ice.
• 1. Dilute Compound in DMSO
• 2. Dilute 2 μL of each above concentration of compound to 38 μL of reaction buffer in 96-well plates and mix. IV. Enzyme and Substrate Solution Preparation • 1. Preparation of 0.39 ng/μL enzyme solution (0.35 ng/μL at final after compound addition). • Mix 4 μL of 4 mg/mL human h-PGDS with 396 μL of reaction buffer (to give enzyme concentration 40 μg/mL). Add 46.8 μL of 40 μg/mL h-PGDS to 4.753 mL of reaction buffer to give a total volume of 4.8 mL • 2. Preparation of Substrate Solution (PGH2): Add 0.375 mL of 0.1 mg/mL of PGH2 to 1.625 mL acetone. V. Enzyme Reaction: • 1. Add 60 μL of enzyme solution to compound well and positive control (without compound) in U-bottom polypropylene plate on ice. • 2. Add 60 μL of reaction buffer and 6.6 μL of 5% DMSO in reaction buffer into negative control wells in the plate. • 3. Add 6.6 μL of diluted compound in reaction buffer to the compound wells and mix. • 4. Add 6.6 μL of 5% DMSO in reaction buffer to the positive control well. • 5. Incubate the plate in ice for at least 30 min. • 6. Add 20 μL of substrate (PGH2) solution to compound, negative and positive control wells in the U-bottom 96 well plate on ice. • 7. Dry the plate in cold room for about 25-28 min. • 8. Pipette 45 μL of enzyme solution (above) into 96-wells with dried PGH2 and mix 3 times. Incubate on the ice for 1 min. • 9. Add 45 μL of FeCl2 solution into each wells and mix. • 10. Add 90 μL of MOX solution and mix. • 11. Incubate for 30 min at 60° C. • 12. Dilute the samples 2500× with EIA buffer. VI. EIA assay • Perform the assay according to the procedure in EIA kit provided by Cayman. […]

Chain of human h-PGDS (O60760 whole entry): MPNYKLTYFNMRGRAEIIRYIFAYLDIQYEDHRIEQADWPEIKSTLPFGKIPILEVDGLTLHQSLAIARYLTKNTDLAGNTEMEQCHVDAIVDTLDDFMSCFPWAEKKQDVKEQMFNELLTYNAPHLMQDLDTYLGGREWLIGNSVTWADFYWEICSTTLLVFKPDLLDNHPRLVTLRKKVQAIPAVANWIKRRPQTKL

SMILES | IC50 [nM]
NS(=O)(=O)c1ccc(NC(=O)c2cnc(-c3ccccc3)nc2)cc1 [Example 30, 2-Phenyl-pyrimidine-5-carboxylic acid (4-sulfamoyl-phenyl)-amide] | 5
Cc1nc(-c2cccc(F)c2)ncc1C(=O)NCc1cccc(CNS(C)(=O)=O)c1 [Example 68, 2-(3-Fluoro-phenyl)-4-methyl-pyrimidine-5-carboxylic acid 3-(methanesulfonylamino-methyl)-benzylamide] | 48.5
Cc1nc(-c2ncc(C(=O)NC3CCOCC3)cn2)cs1 [Example 118, 2-(2-Methyl-thiazol-4-yl)-pyrimidine-5-carboxylic acid (tetrahydro-pyran-4-yl)-amide] | 82
CNS(=O)(=O)c1cccc(CNC(=O)c2cnc(-c3cccc(F)c3)nc2C)c1 [Example 85, 2-(3-Fluoro-phenyl)-4-methyl-pyrimidine-5-carboxylic acid 3-methylsulfamoyl-benzylamide] | 106
CNS(=O)(=O)c1cccc(CNC(=O)c2cnc(-c3cc(F)cc(F)c3)nc2)c1 [Example 40, 2-(3,5-Difluoro-phenyl)-pyrimidine-5-carboxylic acid 3-methylsulfamoyl-benzylamide] | 49
CN(C)S(=O)(=O)CCNC(=O)c1cnc(-c2ccccc2)nc1 [Example 109, 2-Pheny-pyrimidine-5-carboxylic acid (2-dimethylsulfamoyl-ethyl)-amide] | 82
NS(=O)(=O)c1ccc(CNC(=O)c2cnc(-n3cccn3)nc2)cc1 [Example 117, 2-Pyrazol-1-yl-pyrimidine-5-carboxylic acid 4-sulfamoyl-benzylamide] | 266
NS(=O)(=O)CCNC(=O)c1cnc(-c2ccccc2)nc1 [Example 108, 2-Pheny-pyrimidine-5-carboxylic acid (2-sulfamoyl-ethyl)-amide] | 55
O=C(Nc1nc(-c2ccccc2)ns1)c1cnc(-c2ccccc2)nc1 [Example 110, 2-Phenyl-pyrimidine-5-carboxylic acid (3-phenyl-[1,2,4]thiadiazol-5-yl)-amide] | 30
Cc1nc(-c2cccc(F)c2)ncc1C(=O)NCc1cccc(CS(=O)(=O)NC(C)C)c1 [Example 71, 2-(3-Fluoro-phenyl)-4-methyl-pyrimidine-5-carboxylic acid 3-(isopropylsulfamoyl-methyl)-benzylamide] | 34
CN1CCC(NC(=O)c2cnc(-c3ccccc3)nc2)CC1 [Example 38, 2-Phenyl-pyrimidine-5-carboxylic acid (1-methyl-piperidin-4-yl)-amide] | 96
O=C(NCc1ccccc1)c1cnc(-c2ccccc2)nc1 [Example 1, 2-Phenyl-pyrimidine-5-carboxylic acid benzylamide] | 10

Now from value to compound:

IC50 [nM] | SMILES
37 | O=C(NCc1cccc(S(=O)(=O)NCCN2CCOCC2)c1)c1cnc(-c2cccc(F)c2)nc1 [Example 56]
45 | CN(C)CCNS(=O)(=O)c1cccc(CNC(=O)c2cnc(-c3cccc(F)c3)nc2)c1 [Example 63, 2-(3-Fluoro-phenyl)-pyrimidine-5-carboxylic acid 3-(2-dimethylamino-ethylsulfamoyl)-benzylamide]
37 | COCCCNS(=O)(=O)c1cccc(CNC(=O)c2cnc(-c3cccc(F)c3)nc2)c1 [Example 51, 2-(3-Fluoro-phenyl)-pyrimidine-5-carboxylic acid 3-(3-methoxy-propylsulfamoyl)-benzylamide]
9.5 | CNS(=O)(=O)c1cccc(CNC(=O)c2cnc(-c3cccc(F)c3)nc2)c1 [Example 97, 2-(3-Fluoro-phenyl)-pyrimidine-5-carboxylic acid 3-methylsulfamoyl-benzylamide]
58 | CCNS(=O)(=O)c1cccc(CNC(=O)c2cnc(-c3cccc(F)c3)nc2)c1 [Example 45, 2-(3-Fluoro-phenyl)-pyrimidine-5-carboxylic acid 3-ethylsulfamoyl-benzylamide]
31 | NS(=O)(=O)c1cccc(CNC(=O)c2cnc(-c3cccc(F)c3)nc2)c1 [Example 55, 2-(3-Fluoro-phenyl)-pyrimidine-5-carboxylic acid 3-sulfamoyl-benzylamide]
132 | O=C(NCc1cccc(S(=O)(=O)NC2CC2)c1)c1cnc(-c2cccc(F)c2)nc1 [Example 48, 2-(3-Fluoro-phenyl)-pyrimidine-5-carboxylic acid 3-cyclopropylsulfamoyl-benzylamide]
22 | O=C(NCc1cccc(S(=O)(=O)NCCCO)c1)c1cnc(-c2cccc(F)c2)nc1 [Example 49, 2-(3-Fluoro-phenyl)-pyrimidine-5-carboxylic acid 3-(3-hydroxy-propylsulfamoyl)-benzylamide]
60 | CC(C)(CO)NS(=O)(=O)c1cccc(CNC(=O)c2cnc(-c3cccc(F)c3)nc2)c1 [Example 54, 2-(3-Fluoro-phenyl)-pyrimidine-5-carboxylic acid 3-(2-hydroxy-1,1-dimethyl-ethylsulfamoyl)-benzylamide]
35 | CN(C)CC(C)(C)CNS(=O)(=O)c1cccc(CNC(=O)c2cnc(-c3cccc(F)c3)nc2)c1 [Example 65, 2-(3-Fluoro-phenyl)-pyrimidine-5-carboxylic acid 3-(3-dimethylamino-2,2-dimethyl-propylsulfamoyl)-benzylamide]
